“Also recorded” adds a separate entry of the source.
How the values were obtained:
in vivo = conditions: male, Sprague-Dawley, rat, po
Method: (§2) Adult male Sprague–Dawley rats weighing 250–300 g were purchased from the Animal Experimentation Service of the University of Murcia (Murcia, Spain). […] Animals were maintained in a temperature-controlled environment with a 12 h light-dark cycle. […] Based on the experimental design shown in Figure 1, one capsule was administered by gavage to each fasting animal. A total of 40 animals were used in the study. Thirty animals received a capsule containing a mixture of different Mediterranean food extracts, while ten animals received a capsule with microcrystalline cellulose and served as the control group. At each time point (1, 3, 6, 8, and 24 h postadministration), six animals from the extract group were sacrificed, three with transcardial perfusion using saline (PB) and three without perfusion (NPB), to assess the distribution of extract-derived metabolites in plasma and brain. To minimize animal use in accordance with the 3Rs principle, two control animals were sacrificed at each time point (one PB and one NPB). […] All animals were fasted overnight prior to gavage and euthanized with carbon dioxide.
(§3) Blood samples collected by cardiac puncture in sodium heparin tubes at each time point after sacrifice were immediately centrifuged at 14,000 × g for 15 min at 4 °C, and the plasma was stored at −80 °C until their analysis. Plasma samples were extracted with ACN:formic acid (98:2, v/v), centrifuged and evaporated in a speed vacuum concentrator (Savant SPD14 0DDA). The evaporated samples were resuspended in 100 μL MeOH and filtered through 0.22 μm regenerated cellulose filters (Minisart Sartorius, Madrid, Spain).
(§4) We performed a targeted metabolomic analysis using an ultrahigh-performance liquid chromatographic system (UPLC) coupled to a quadrupole-time-of-flight (QTOF) mass spectrometer. The phenolic compounds were separated using an Agilent Poroshell 120 column (100 mm × 3 mm, 2.7 μm) and a 5 μL injection volume. The mobile phases used were 0.1% formic acid in water (A) and 0.1% formic acid in ACN (B), and the gradient was: 0–3 min, 5–15% B; 3–11 min, 15–30% B; 11–14 min, 30–50% B, 14–16 min, 50–90% B. Finally, the B content was decreased to the initial conditions (5%) in 1 min, and the column re-equilibrated for 4 min. The flow rate was set constant at 0.4 mL/min. The spectra were acquired in the m/z range from 100 to 1100, in negative polarity mode and an acquisition rate of 1.5 spectra per second.

[1] = Targeted metabolomics (UPLC-ESI-QTOF) identification of metabolites in plasma, PB and NPB; conditions: P plasma, PB perfused brain, NPB nonperfused brain, 1-24 h after oral capsule
Method: (§5) Adult male Sprague–Dawley rats weighing 250–300 g were purchased from the Animal Experimentation Service of the University of Murcia (Murcia, Spain). […] Based on the experimental design shown in Figure 1, one capsule was administered by gavage to each fasting animal. A total of 40 animals were used in the study. Thirty animals received a capsule containing a mixture of different Mediterranean food extracts, while ten animals received a capsule with microcrystalline cellulose and served as the control group. […] To minimize animal use in accordance with the 3Rs principle, two control animals were sacrificed at each time point (one PB and one NPB). These controls served to identify potential endogenous compounds or background signals not related to the extract administration. All animals were fasted overnight prior to gavage and euthanized with carbon dioxide.
(§6) Plasma samples were extracted with ACN:formic acid (98:2, v/v), centrifuged and evaporated in a speed vacuum concentrator (Savant SPD14 0DDA). The evaporated samples were resuspended in 100 μL MeOH and filtered through 0.22 μm regenerated cellulose filters (Minisart Sartorius, Madrid, Spain). Next, half of the animals at each time point were perfused with ice-cold phosphate-buffered saline, and the blood-free brain was dissected out immediately and stored at – 80 °C until analysis, as previously reported.[37],[48]
(§7) Approximately 400 mg of brain tissue (perfused or nonperfused) was weighed and extensively washed with cold PBS to avoid external blood contamination. After weighting, the samples were placed in 2 mL screw cap tubes. […] The evaporated samples were resuspended in 100 μL MeOH and filtered through 0.22 μm regenerated cellulose filters.
(§8) We performed a targeted metabolomic analysis using an ultrahigh-performance liquid chromatographic system (UPLC) coupled to a quadrupole-time-of-flight (QTOF) mass spectrometer. The phenolic compounds were separated using an Agilent Poroshell 120 column (100 mm × 3 mm, 2.7 μm) and a 5 μL injection volume. […] The flow rate was set constant at 0.4 mL/min. The spectra were acquired in the m/z range from 100 to 1100, in negative polarity mode and an acquisition rate of 1.5 spectra per second. Quantitative data were processed using the Mass HunterQualitative Analysis software (version B.08.00, Agilent). A target screening strategy was applied for the qualitative analysis of possible metabolites derived from the consumption of the Mediterranean blend. […] These compounds encompass derived metabolites conjugated (glucuronides, sulfates, and sulfoglucuronides, among others). The exact mass of the proposed compound was extracted using an extraction window of 0.01 m/z. Metabolite quantification was performed by integrating the peak areas of their extracted ion chromatograms (EICs). Compounds with available standards were quantified using calibration curves derived from the respective standards, while other metabolites were semiquantified based on their peak area values.

[2] = rat, in vivo
Method: as §5, §6, §7, §8

[3] = Plasma pharmacokinetics of phenolic metabolites after oral capsule of (poly)phenol-rich Mediterranean extract mixture; conditions: for AUC0-t plasma / MRT0-t plasma / T1/2 plasma / Tmax plasma: oral capsule, 0-24 h, n = 6 per time point
Method: as §2, §3, §4

[4] = test system: human brain microvascular endothelial cells (HBMECs); test: In vitro blood–brain barrier transport (Transwell); format: in vitro ADME; conditions: 2 h; for transport efficiency in MIXperc compared with MIXeq / transport efficiency in both mixtures and as individual molecules: HBMEC; for transport efficiency in MIXperc compared with MIXeq: mixtures at 2.5 μM final; for transport percentage, individual compounds: HBMEC monolayer, lower compartment / total concentration; for transport percentage, individual compounds / transport efficiency in both mixtures and as individual molecules: 2.5 μM
Method: The BBB transport model was established using human brain microvascular endothelial cells (HBMECs), following a methodology previously described.[49] Cells were maintained at 37 °C in a humidified environment with 5% CO2. HBMECs were seeded on 12-well Transwell inserts (12 mm, 0.4 μm pore polyester membrane; Corning, Madrid, Spain) and cultured for 6 days to form confluent monolayers suitable for transport studies. Transport assays were carried out in Hanks’ Balanced Salt Solution (HBSS) supplemented with 0.1% fetal bovine serum (FBS, v/v). The cells were exposed on the apical side to individual phenolic metabolites detected in the brain from the animal study, a representative mixture containing equal concentrations of these metabolites, or a physiological mixture reproducing their relative percentages as observed in the brain. All treatments were applied at a final concentration of 2.5 μM for 2 h (Supporting Information, Table S3). The integrity of the cell monolayers was confirmed by measuring transendothelial electrical resistance (TEER) at the start of the experiment (0 h) and after the last time point (2 h) using an EVOM2 Epithelial Volt Ohm Meter (World Precision Instruments, Inc., USA).
Samples from the apical and basolateral compartments were stored at −80 °C for further analysis. Transport of the compounds was evaluated using UPLC-qTOF as described elsewhere,[38] and transendothelial permeability expressed as a percentage of the ratio between the concentration in the basolateral compartment relative to the total concentration in both compartments.
Finally, one-way ANOVA with Tukey’s multiple comparisons test was exclusively applied to in vitro BBB transport experiments. The three tested conditions for each compound (individual compound, a mixture containing equal concentrations of these compounds, or a physiological mixture reproducing their relative percentages as observed in the brain were evaluated. Plots were performed using GraphPad 9.0 (GraphPad Software, Boston, Massachusetts, USA). Statistical significance was set at P < 0.05.
Figure 3 Transport efficiency of phenolic metabolites across the BBB. Human brain microvascular endothelial cells (HBMEC) were seeded onto semipermeable membranes. […] Detailed composition of both mixtures is given in the Supporting Information, Table S3. Media from the upper and lower compartments were collected, and endothelial transport was evaluated by UPLC-qTOF-MS. The transport percentage (%) was determined by the concentration ratio in the lower compartment to the total concentration (upper and lower compartments). All values are presented as mean ± SD from three independent experiments.

[5] = Perfused brain (PB) kinetics of phenolic metabolites after oral capsule; format: in vivo, Sprague–Dawley rats; set-up: AUC0-t PB: concentration or dose not given beside the values; conditions: perfused brain, oral capsule, 0-24 h, n = 3 per time point; for half-life: read-out: T1/2 PB (converted)
Text: (§1) Statistical analyses were applied depending on the experimental context.

[6] = Nonperfused brain (NPB) kinetics of phenolic metabolites after oral capsule; format: in vivo, Sprague–Dawley rats; set-up: AUC0-t NPB: concentration or dose not given beside the values; conditions: for Tmax / MRT last / half-life: male, Sprague-Dawley, rat, 22 mg extract blend per capsule, one capsule per animal; for MRT last: read-out: MRT0-t NPB; for half-life: read-out: T1/2 NPB (converted)
Text: as §1

[7] = set-up: method as in doi:10.1016/j.jff.2015.09.019; conditions: human, even upon high free ellagic acid intake; cited from earlier work
[8] = male, Sprague-Dawley, rat, po, 22 mg extract blend per capsule, one capsule per animal
[9] = male, Sprague-Dawley, rat, 22 mg extract blend per capsule, one capsule per animal
[10] = nonperfused brain, oral capsule, 0-24 h, n = 3 per time point
[11] = read-out: Cmax plasma, oral capsule, 0-24 h, n = 6 per time point

| SMILES | AUC(0-t) [3, 8] [µM·h] | Cmax [3, 8] [nM] | MRT last [3, 8] [h] | Tmax [3, 8] [h] | Tmax [5, 9] [h] | AUC0-t PB [5] [pmol·h/g] | Cmax PB [5] [pmol/g tissue] | Tmax [6, 10] [h] | MRT last [6, 10] [h] | half-life [6, 10] [h] | AUC0-t NPB [6, 10] [pmol·h/g] | Cmax NPB [6, 10] [pmol/g tissue] | half-life [3, 8] [h] | transport percentage, individual compounds [4] | occurrence [1] | transport efficiency in MIXperc compared with MIXeq [4] | also measured |
| --- | --- | --- | --- | --- | --- | --- | --- | --- | --- | --- | --- | --- | --- | --- | --- | --- | --- |
| O=S(=O)(O)Oc1ccc(C=Cc2cc(O)cc(O)c2)cc1 [resveratrol 4’-O-sulfate] | – | – | – | – | – | – | – | – | – | – | – | – | – | – | restricted to plasma | – | AUC(0-t) (in vivo): 0.026 ± 0.027 µM·h; Cmax (in vivo): 2.9 ± 2.8 nM; MRT last (in vivo): 10.7 h; Tmax (in vivo): 7.3 ± 1.2 h; half-life (in vivo): 5.6 h; concentration–time profile in brain (Figure 2) [2]: Not detected |
| O=C(O)[C@H]1O[C@@H](Oc2cc(O)cc(CCc3ccc(O)cc3)c2)[C@H](O)[C@@H](O)[C@@H]1O [dihydroresveratrol 3-O-glucuronide] | – | – | – | – | – | 1.3 ± 0.7 | 0.4 ± 0.1 | – | – | – | 5.3 ± 2.8 | 0.5 ± 0.1 | – | – | PB, NPB, P | significantly higher transport efficiencies | AUC0-t plasma [3]: 0.993 ± 0.558 µM·h; MRT0-t plasma [3]: 14 ± 5.8 h; T1/2 plasma [3]: 8.1 ± 3.2 h; Tmax plasma [3]: 6.2 ± 2.1 h; Cmax [3, 11]: 93 ± 45 nM; MRT0-t PB [5]: 23 ± 26 h; T1/2 PB [5]: 15 ± 18 h; Tmax PB [5]: 3.3 ± 2.1 h; MRT0-t NPB [6, 10]: 44 ± 1 h; T1/2 NPB [6, 10]: 27 ± 1 h; Tmax NPB [6, 10]: 6.7 ± 1.2 h |
| O=C(O)CCCCc1cccc(O)c1 [5-(3-hydroxyphenyl)-valeric acid] | 0.055 ± 0.011 | 4.8 ± 1.9 | 43 ± 45 | 7.4 ± 9.5 | 2 ± 1.2 | 30 ± 6.5 | 2.4 ± 0.8 | 2.3 ± 1.2 | 102 ± 62 | 70 ± 46 | 33 ± 4.8 | 3.4 ± 0.7 | 29 ± 32 | – | PB, NPB, P | lower transport percentages | concentration in plasma (approximate) [3]: approximately 5 nM; half-life [5, 9]: 39 ± 19 h; occurrence ([1]; listed as 5-(3-hydroxyphenyl)valeric acid): consistently detected in plasma and brain at all time points |
| O=C(O)CCc1cccc(O)c1 [3-(3-hydroxyphenyl) propionic acid] | 0.481 ± 0.353 | 39 ± 20 | 9.77 | 13 ± 11 | 3.3 ± 2.5 | 11 ± 6.8 | 1.0 ± 0.5 | 7.5 ± 3.1 | 11 ± 4.1 | 20 ± 15 | 13 ± 11 | 4.0 ± 3.6 | 6.9 | exceeding 20% | PB, NPB, P | – | transport efficiency in both mixtures and as individual molecules [4]: relatively consistent transport efficiencies; MRT last ([5]; male, Sprague-Dawley, rat, 22 mg extract blend per capsule, one capsule per animal, read-out: MRT0-t PB): 11 ± 6.9 h; half-life [5, 9]: 11 ± 6.9 h; occurrence ([1]; listed as 3-(3-hydroxyphenyl)propionic acid): consistently detected in plasma and brain at all time points |

The next lines start with results.

| AUC(0-t) [3, 8] [µM·h] | Cmax [3, 8] [nM] | MRT last [3, 8] [h] | Tmax [3, 8] [h] | Tmax [5, 9] [h] | AUC0-t PB [5] [pmol·h/g] | Cmax PB [5] [pmol/g tissue] | Tmax [6, 10] [h] | MRT last [6, 10] [h] | half-life [6, 10] [h] | AUC0-t NPB [6, 10] [pmol·h/g] | Cmax NPB [6, 10] [pmol/g tissue] | half-life [3, 8] [h] | transport percentage, individual compounds [4] | SMILES | occurrence [1] | transport efficiency in MIXperc compared with MIXeq [4] | also measured |
| --- | --- | --- | --- | --- | --- | --- | --- | --- | --- | --- | --- | --- | --- | --- | --- | --- | --- |
| 0.0141 ± 0.0074 | 1.1 ± 0.8 | 103 | 10 ± 12 | 16 ± 11 | 1.5 ± 1.1 | 0.1 ± 0.08 | 15 ± 13 | 56.9 | 36.3 | 7.1 ± 7.5 | 0.9 ± 0.9 | – | – | O=c1oc2c(O)c(O)cc3c(=O)oc4c(O)c(O)cc1c4c23 [ellagic acid] | PB, NPB, P | significantly higher transport efficiencies | concentration in NPB relative to PB ([6]; NPB versus PB): 9 fold; free ellagic acid concentration in plasma [7]: ≤ 100 nM |
| 0.0084 ± 0.01 | 2.2 ± 2.6 | 8.5 ± 5.5 | 5.2 ± 2.2 | 5 ± 1.7 | 0.1 ± 0.1 | 0.1 ± 0.01 | 15 ± 13 | – | – | 2.2 ± 0.1 | 0.2 ± 0.04 | 3.9 ± 4.3 | < 5% | O=S(=O)(O)Oc1cc(O)cc(C=Cc2ccc(O)cc2)c1 [resveratrol 3-O-sulfate] | detected in plasma, PB, and NPB; also recorded: PB, NPB, P | lower transport percentages | – |
| – | – | – | – | – | 4.7 ± 1.8 | 1.0 ± 0.7 | – | – | – | 3.32 | 0.24 | – | exceeding 20% | O=C(O)C=Cc1ccc(O)c(OS(=O)(=O)O)c1 [caffeic acid 3-O-sulfate] | PB, NPB, P | – | AUC0-t plasma [3]: 0.282 ± 0.332 µM·h; MRT0-t plasma [3]: 13 ± 8.8 h; T1/2 plasma [3]: 8.3 ± 4.9 h; Tmax plasma [3]: 8.6 ± 8.9 h; Cmax [3, 11]: 22 ± 21 nM; transport efficiency in both mixtures and as individual molecules [4]: relatively consistent transport efficiencies; MRT0-t PB [5]: 8.7 ± 7.3 h; T1/2 PB [5]: 5.2 ± 5.7 h; Tmax PB [5]: 3.0 ± 0.1 h; Tmax NPB [6, 10]: 3.00 h |
| 0.127 ± 0.031 | 16 ± 8.6 | 86 ± 138 | 2.6 ± 0.9 | 4.5 ± 5 | 11 ± 2.8 | 0.7 ± 0.3 | 24 | – | – | 18 ± 1 | 0.9 ± 0.1 | 61 ± 94 | < 5% | O=C(O)CCc1ccc(O)c(O)c1 [dihydrocaffeic acid] | PB, NPB, P | – | occurrence ([1]; listed as 3-(3,4-dihydroxyphenyl)propionic acid): consistently detected in plasma and brain at all time points |
